Reference: patent US12358949B2, “Defensin fragments for use in therapy or prophylaxis” (priority 2019, dated 2025)
In brackets after ≈: the same amount, converted by molar mass. Like-named read-outs stand apart in the source and are kept apart here. Where a SMILES comes first, the peptide text is derived from it. [ ]: non-standard residue; d: D form.

How the values were obtained:
[1] = tested on: human cell line, red blood cells
Protocol: As positive control, cells were treated with 2% Triton X-100 while treatment with 0.01% acetic acid was used as negative control. […] Hemolytic activity was normalized to the hemolytic activity of 0.1% Triton X-100. The experiments were carried out in duplicates.
The activity was normalized to the positive control. As positive control, cells were treated with 2% Triton X-100 while treatment with 0.01% acetic acid was used as negative control.

Y. enterocolitica = type: cell-based
Protocol: (§1) The tested bacteria were incubated overnight in 1×TSB broth, centrifuged and washed with 10 mM sodium phosphate buffer containing 1% (w/v) TSB broth. 5×10^5 cfu/ml bacteria were mixed with different peptide concentrations in 10 mM sodium phosphate buffer with 1% (w/v) TSB (final volume 100 μl) and incubated for 2 hours at 37° C. Afterwards we added 100 μl 2×TSB broth and we measured the optical density at 600 nm (Spark 10M, Tecan, Austria). Bacterial growth was monitored for 12 hours, growing at 37° C. with shaking during the measurements each 30 minutes, except for Akkermansia muciniphila which were incubated at 37° C. in an anaerobic jar and growth was measured after 72 hours.

P. aeruginosa XPAT2 = type: cell-based
Protocol: as §1

E. faecium DSM 20477 = type: cell-based
Protocol: as §1

P. aeruginosa XPAT1 = type: cell-based
Protocol: as §1

E. coli BW 25113 [2] = type: cell-based
Protocol: as §1

P. aeruginosa 4-MRGN = type: cell-based
Protocol: as §1

A. baumannii 4-MRGN = type: cell-based
Protocol: as §1

S. aureus USA300 = type: cell-based
Protocol: as §1

S. aureus ATCC 25923 = type: cell-based
Protocol: as §1

A. baumannii DSM 30007 = type: cell-based
Protocol: as §1

P. aeruginosa ATCC 27853 = type: cell-based
Protocol: as §1

P. aeruginosa PAO1 = type: cell-based
Protocol: as §1

K. pneumoniae 3-MRGN = type: cell-based
Protocol: as §1

K. pneumoniae DSM 30104 = type: cell-based
Protocol: as §1

E. coli JM83 = type: cell-based
Protocol: as §1

E. faecium 475747 = type: cell-based
Protocol: as §1

C. albicans 529L = type: cell-based
human erythrocytes = experiment: Hemolytic assay; type: cell-based
Protocol: Hemolytic activity was measured after an existing protocol^13. We obtained blood from two voluntary donors (sample collection had been previously approved by the Ethical Committee of the University Hospital of Tübingen, Germany) and 1 ml blood was washed with PBS two times. Afterwards we centrifuged the blood at 1000 g and performed a 1% (v/v) blood suspension in PBS. The blood suspension was incubated with different peptide concentrations (final concentration 0.5%) for one hour at 37° C. Then the samples were centrifuged at 1000 g for 10 minutes and the supernatant was collected and measured at 414 nm. […] These experiments were carried out in duplicates.

CaCo2/TC7 cells = tested on: CaCo2/TC7 cells
Protocol: CaCo2/TC7 (X, X) and HT29 MTX […] […] Experiments were carried out in duplicates.

[3] = tested on: S. enterica serovar enteriditis; experiment: Turbidity broth assay (MIC); type: cell-based; conditions: after 12 hours
Protocol: as §1

[4] = tested on: S. enterica serovar Enteritidis; experiment: Turbidity assay, MIC by optical density after 18 h; type: cell-based; set-up: key: XX High activity; X Low activity; No activity
E. coli BW 25113 [5] = experiment: Turbidity assay, MIC by optical density after 18 h; type: cell-based; set-up: key: XX High activity; X Low activity; No activity
Protocol: Bactericidal activity of the E. coli and S. aureus strains in the cell wall target experiments as well as the HD5 dimer experiments was assessed as described previously. Log-phase bacteria were collected by centrifugation (2500 rpm, 10 min, […]), washed twice with 10 mM sodium phosphate buffer containing 1% (w/v) TSB broth and the optical density at OD600 nm (OD600=0.1) was determined. Approximately 5×10^5 CFU/ml bacteria were incubated with serial peptide concentrations (1.17-150 μM) in a final volume of 100 μl in 10 mM sodium phosphate buffer containing 1% (w/v) TSB broth for 2 hours at 37° C. After incubation, 100 μl of 6% TSB (w/v) were added and absorbance was measured at 600 nm (Tecan, Switzerland) and monitored for 18 hours. Afterwards, 100 μl per well were plated on LB-plates to determine the numbers of viable bacteria microbiologically. Bactericidal activity is expressed as the LC99.9, the lowest concentration that killed ≥99.9% of bacteria. The experiment was repeated at least three times independently.

E. faecalis ATCC 19433 = experiment: Turbidity assay, MIC by optical density after 18 h; type: cell-based
[6] = K. pneumoniae 3-MRGN, after 12 hours
[7] = Y. enterocolitica, after 12 hours
[8] = K. pneumoniae DSM30104, after 12 hours
[9] = P. aeruginosa XPAT2, after 12 hours
[10] = E. faecium DSM20477, after 12 hours
[11] = P. aeruginosa XPAT1, after 12 hours
[12] = E. faecium 475747, after 12 hours
[13] = P. aeruginosa 4-MRGN, after 12 hours
[14] = A. baumannii 4-MRGN, after 12 hours
[15] = S. aureus USA300, after 12 hours
[16] = S. aureus ATCC25923, after 12 hours
[17] = A. baumannii DSM30007, after 12 hours
[18] = P. aeruginosa ATCC 27853, after 12 hours
[19] = P. aeruginosa PAO1, after 12 hours

Protocol for HT29 MTX E29 cells: CaCo2/TC7 (X, X) and HT29 MTX [MUT] (X, X) were seed in a 96 well plate in 90 μl media (1500 cells/well) and incubated at 37° C. for 24 hours. Afterwards peptide treatment with different concentrations started (volume of 10 μl solved in 0.01% acetic acid) and cells were incubated for 96 hours. Untreated and 1% Triton-X treated cells were used as controls. After the incubation we added 100 μl of CellTiter Glo2.0 solution and started our measurement protocol. The measurement was carried out in a Spark 10M (Tecan), starting with 12 minutes continuously shaking followed by the luminescence measurement with an integration time from 1 second per well. Experiments were carried out in duplicates.

Row | Molecule | MIC (Y. enterocolitica; 12 h) [µM] | MIC (P. aeruginosa XPAT2; XPAT2, 12 h) [µM] | MIC (E. faecium DSM 20477; DSM 20477, 12 h) [µM] | MIC (P. aeruginosa XPAT1; XPAT1, 12 h) [µM] | MIC (P. aeruginosa 4-MRGN; 4-MRGN, 12 h) [µM] | MIC (A. baumannii 4-MRGN; 4-MRGN, 12 h) [µM] | MIC (S. aureus USA300; USA300, 12 h) [µM] | MIC (S. aureus ATCC 25923; ATCC 25923, 12 h) [µM] | MIC (A. baumannii DSM 30007; DSM 30007, 12 h) [µM] | MIC (P. aeruginosa ATCC 27853; ATCC 27853, 12 h) [µM] | MIC (P. aeruginosa PAO1; PAO1, 12 h) [µM] | MIC (K. pneumoniae 3-MRGN; [6]) | MIC (Y. enterocolitica; [7]) | MIC (K. pneumoniae DSM 30104; [8]) | MIC (P. aeruginosa XPAT2; [9]) | MIC (E. faecium DSM 20477; [10]) | MIC (P. aeruginosa XPAT1; [11]) | MIC (E. faecium 475747; [12]) | MIC (P. aeruginosa 4-MRGN; [13]) | MIC (A. baumannii 4-MRGN; [14]) | other results
1 | C[C@H](N)C(=O)N[C@H](C(=O)N[C@@H](CS)C(=O)N[C@@H](Cc1ccc(O)cc1)C(=O)N[C@@H](CS)C(=O)N[C@@H](CCCNC(=N)N)C(=O)N[C@H](C(=O)NCC(=O)N[C@@H](CCCNC(=N)N)C(=O)O)[C@@H](C)O)[C@@H](C)O [HD-51-9] (H-ATCYCRTGR-OH; N-terminus and C-terminus assumed) | 50 to 100 | >100 | 25 | >100 | 100 | 25 | 50 | 50 | 100 | 50 | 50 |  |  |  |  |  |  |  |  |  | toxic effect in in vitro experiments [1]: no toxicity was observed; MIC (E. coli BW 25113 [2]; BW 25113, 12 h): 25 µM (≈ 25.8 µg/mL)
2 | CC(=O)N[C@@H](C(=O)N[C@H](CS)C(=O)N[C@H](CO)C(=O)N[C@H](CS)C(=O)N[C@H](CCCNC(=N)N)C(=O)N[C@H](CC(C)C)C(=O)N[C@@H](C(=O)N[C@H](Cc1ccccc1)C(=O)N[C@H](CS)C(=O)N[C@H](CCCNC(=N)N)C(=O)N[C@H](CCCNC(=N)N)C(N)=O)C(C)C)C(C)C [HNP-41-11mod, Ac-vcscrlvfcrr-NH2] (Ac-[dV][dC][dS][dC][dR][dL][dV][dF][dC][dR][dR]-NH2) | 6.25 | 12.5 | 6.25 | 12.5 | 6.25 | 6.25 | 12.5 | 3.125 | 6.25 | 6.25 | 12.5 | 8.6 µg/mL | 8.6 µg/mL | 8.6 µg/mL | 17.3 µg/mL | 8.6 µg/mL | 17.3 µg/mL | 4.3 µg/mL | 8.6 µg/mL | 8.6 µg/mL | MIC (K. pneumoniae 3-MRGN; 3-MRGN, 12 h): 6.25 µM; MIC (K. pneumoniae DSM 30104; DSM 30104, 12 h): 6.25 µM; MIC (E. coli JM83; E. coli JM83, after 12 hours): 8.6 µg/mL; MIC (E. coli JM83; JM83, 12 h): 6.25 µM; MIC (E. faecium 475747; 475747, 12 h): 3.125 µM; MIC (S. aureus USA300; [15]): 17.3 µg/mL; MIC (S. aureus ATCC 25923; [16]): 4.3 µg/mL; MIC (A. baumannii DSM 30007; [17]): 8.6 µg/mL; MIC (P. aeruginosa ATCC 27853; [18]): 8.6 µg/mL; MIC (P. aeruginosa PAO1; [19]): 17.3 µg/mL; MIC (C. albicans 529L; 529L, 24 h): 25 µM; MIC (C. albicans 529L; C. albicans 529L, after 24 hours (Table 5)): 34.6 µg/mL; hemolytic toxicity (human erythrocytes; at ≤18.75 μM): negligible toxicity; hemolytic activity, in words (human erythrocytes; compared to Melittin): low hemolytic activity; cytotoxic effects (CaCo2/TC7 cells): minor cytotoxic effects; cytotoxic effects compared to CaCo2/TC7 (HT29 MTX E29 cells): more susceptible
3 | Ac-atcycrtGr-NH2 [HD-51-9mod] |  |  |  |  |  |  |  |  |  |  |  | >>> | 50 to 100 µM | >>> | 100 µM | 6.25 µM | >100 µM | 3.125 µM | 50 µM | 12.5 µM | MIC (E. coli BW 25113 [2]; E. coli (BW 25113 per table title), after 12 hours): 25 µM; MIC (S. aureus USA300; [15]): 12.5 µM; MIC (S. aureus ATCC 25923; [16]): 12.5 µM; MIC (A. baumannii DSM 30007; [17]): 25 µM; MIC (P. aeruginosa ATCC 27853; [18]): 12.5 µM; MIC (P. aeruginosa PAO1; [19]): 50 µM; MIC (C. albicans 529L; C. albicans 529L, after 12 hours (Table 4)): >100 µM; MIC [3]: >>>
4 | RGTRCYCTA [HD-51-9rev] |  |  |  |  |  |  |  |  |  |  |  |  |  |  |  |  |  |  |  |  | antimicrobial activity (MIC), activity class [4]: X; antimicrobial activity (MIC), activity class (E. coli BW 25113 [5]): XX; antimicrobial activity, in words (E. faecalis ATCC 19433): complete dissolving of bactericidal effects
